# Source: US8835644B2, “Broad spectrum benzothiophene-nitrothiazolide and other antimicrobials” (University of Virginia Patent Foundation, priority 2009, dated 2014)
# Tests used:
# E. coli biofilm = E. coli biofilm assay (activity tables); assay type: cell-based, Escherichia coli; details: biofilm; read-out: MIC (μM) E. coli Biofilm
# Protocol: A quantitative biofilm assay was used to determine the effect of NTZ on biofilm formation (41). Strain 042 was grown overnight at 37° C. with shaking and inoculated 1:100 in 200 μl culture medium in Costar 96-well, flat-bottom, polystyrene microtiter plates containing appropriate concentrations of NTZ. Plates were incubated statically at 37° C. in a humidified incubator. At 24 h, bacterial growth was measured by either transferring […] aliquots to another microtiter plate to determine turbidity or by diluting 100 μl aliquots 1:100 in 9.9 ml PBS for quantitative plate counts on LB medium. Bacterial counts in triplicate are reported as cfu/ml. Biofilm was visualized following staining with 0.5% crystal violet (41) and the absorbance was read at 570 nm using a microplate reader (Molecular Dynamics). All experiments were in triplicate and reported as mean and standard deviation.
# (§1) A standard broth dilution protocol was used in 96 well microplates containing a standard dilution of the microorganism to be tested in 100 microliters of the appropriate medium. Appropriate medium: E. coli, LB medium; Staphylococcus strains, Trypticase Soy; and for H. pylori and C. jejuni, Brain Heart Infusion. The compounds to be tested were set at 32 μg/ml in 200 microliters in well one and then serially diluted to provide a range from 32 to 0.06. The wells were scored visually at 24 h. The well where there was no growth was recorded as the MIC. Clostridium difficile was tested by agar diffusion and disk diffusion (Kirby Bower) methods under anaerobic conditions on Wilkins Chalgrin agar. In these assays, zone of inhibited growth was measured and compared by relative ratio to the zone recorded for NTZ.
# (§2) Representative compounds of the invention were tested in a series of assays against a series of organisms as described above. […] The organisms tested include, C. difficile, H. pylori, C. jejuni, MRSA, S. epidermidis, and E. coli. S. epidermidis and E. coli were tested in the plank and biofilm assay. A disk diffusion assay was also used for C. difficile. Direct PFOR enzyme assays were also performed. All analogues and derivatives were not tested on every organism in every type of assay (the “-” in each table means that it was not tested).
# C. jejuni = assay: MIC testing by broth dilution, C. jejuni; assay type: cell-based, Campylobacter jejuni; details: broth dilution, Brain Heart Infusion, 24 h; read-out: MIC (μM) C. jejuni
# Protocol: as §1, §2
# S. epidermidis biofilm = S. epidermidis biofilm assay (activity tables); assay type: cell-based, Staphylococcus epidermidis
# Protocol: Staphylococcal strains were cultured overnight in TSB at 37° C. with shaking, diluted in fresh medium to an OD600 of 0.01 and 200 W was dispensed into sterile flat bottom polystyrene 96 well microtiter plates (Costar 3596, Corning Inc.). […] Each compound and dilution was tested in triplicate. The plates were incubated overnight at 37° C. in a humidified incubator, without shaking and both growth and biofilm accumulation were determined at 16 h.
# Following recording of turbidities, the culture medium was aspirated and the wells were washed three times with distilled water, blotted on paper towels, and fixed with 75% ethanol for 10 minutes.
# To visualize biofilm material, 0.5% crystal violet was added to each well and after 5 minutes was removed and the wells washed three times with distilled water. Plates were read using a microplate reader at a wavelength of 570 nm. The dye was then extracted by adding 200 W of 95% ethanol, and the absorbance was read again at 570 nm. All assays were performed in triplicate and the mean and standard deviation determined. […]
# as §2
# H. pylori = assay: MIC testing by broth dilution, H. pylori; assay type: cell-based, Helicobacter pylori; details: broth dilution, Brain Heart Infusion, 24 h; read-out: MIC (μM) H. pylori
# Protocol: as §1, §2
# MRSA = assay: MIC testing by broth dilution, MRSA; assay type: cell-based, Staphylococcus aureus; details: broth dilution, Trypticase Soy, 24 h; read-out: MIC (μM) MRSA
# Protocol: as §1, §2
# E. coli = assay: MIC testing by broth dilution, E. coli plank; assay type: cell-based, Escherichia coli; details: broth dilution, LB medium, 24 h; read-out: MIC (μM) E. coli Plank
# Protocol: as §1, §2
# S. epidermidis = assay: MIC testing by broth dilution, S. epidermidis plank; assay type: cell-based, Staphylococcus epidermidis; details: broth dilution, Trypticase Soy, 24 h; read-out: MIC (μM) S. epidermidis Plank
# Protocol: as §1, §2
# C. difficile = assay: Disk diffusion (Kirby Bower), C. difficile; assay type: cell-based, Clostridium difficile; details: zone of inhibited growth as relative ratio to the zone for NTZ
# Protocol: as §1, §2
SMILES,MIC (E. coli biofilm),MIC (C. jejuni),MIC (μM) S. epidermidis Biofilm (S. epidermidis biofilm),MIC (H. pylori),MIC (MRSA),MIC (E. coli),MIC (S. epidermidis),Disk Diffusion (%) C. difficile (C. difficile)
O=C(Nc1ncc([N+](=O)[O-])s1)c1cccc([N+](=O)[O-])c1O [VPC161090],103.1 µM,103.1 µM,6.4 µM,19.3 µM,103.1 µM,103.1 µM,77.4 µM,–
O=C(Nc1ncc([N+](=O)[O-])s1)c1ccc(F)cc1C(F)(F)F [VPC161127],95.5 µM,23.9 µM,13.4 µM,3.4 µM,8.9 µM,95.5 µM,23.9 µM,–
O=C(Nc1ncc([N+](=O)[O-])s1)c1cccc(F)c1 [VPC161166],59.9 µM,11.2 µM,59.9 µM,0.9 µM,16.8 µM,119.7 µM,22.5 µM,–
O=C(Nc1ncc([N+](=O)[O-])s1)c1ccc([N+](=O)[O-])cc1 [VPC161170],108.8 µM,13.6 µM,3.4 µM,1.3 µM,20.4 µM,81.6 µM,10.2 µM,–
COc1ccc(-c2ccc(F)cc2F)cc1C(=O)Nc1ncc([N+](=O)[O-])s1 [VPC161171],81.8 µM,40.9 µM,81.8 µM,0.8 µM,81.8 µM,81.8 µM,81.8 µM,–
N#Cc1cccc(C(=O)Nc2ncc([N+](=O)[O-])s2)c1 [VPC161173],116.7 µM,36.5 µM,58.3 µM,4.1 µM,43.8 µM,116.7 µM,29.2 µM,–
O=C(Nc1ncc([N+](=O)[O-])s1)c1cccnc1 [VPC161176],127.9 µM,71.9 µM,63.9 µM,4.0 µM,127.9 µM,127.9 µM,127.9 µM,–
O=C(Nc1ncc([N+](=O)[O-])s1)c1ccncc1 [VPC161177],127.9 µM,24.0 µM,127.9 µM,16.0 µM,127.9 µM,127.9 µM,127.9 µM,–
O=C(O)CCCC(=O)Nc1ncc([N+](=O)[O-])s1 [VPC161273],61.7 µM,123.4 µM,123.4 µM,5.8 µM,123.4 µM,123.4 µM,–,–
NCCCCOc1ccccc1C(=O)Nc1ncc([N+](=O)[O-])s1.O=C(O)C(F)(F)F [VPC162096TFA],–,6.7 µM,–,1.7 µM,71.0 µM,71.0 µM,35.5 µM,111%
Cl.NCCCOc1ccccc1C(=O)Nc1ncc([N+](=O)[O-])s1 [VPC162102HCl],–,8.4 µM,–,1.0 µM,89.2 µM,89.2 µM,44.6 µM,74%
NCCCOc1ccccc1C(=O)Nc1ncc([N+](=O)[O-])s1.O=C(O)C(F)(F)F [VPC162102TFA],–,13.8 µM,–,0.9 µM,73.3 µM,73.3 µM,73.3 µM,79%
